Measured values: publication PMC4790291, “Short, Synthetic Cationic Peptides Have Antibacterial Activity against Mycobacterium smegmatis by Forming Pores in Membrane and Synergizing with Antibiotics” (Antibiotics, 2015)
≈ marks a conversion by molar mass, not a printed value. Where “and” joins values, the source holds several entries; their conditions need not be identical. Equal entries are not always repeated. Where two headings read alike, the source gives them in different places. Positions of bridges follow the written chain, without caps; N, C: chain ends. Non-standard residues stand in square brackets, D forms with d. Residues, ends and D or L forms follow the SMILES beside them. No end group written: not given here. *: point of attachment. X1 = CC[C@H](C)CCCCC(=O)*; Dab = NCC[C@H](N)C(=O)O

Assays:
[1] = tested on: M. smegmatis mc^2155
Method: (§1) The antimicrobial activity for each peptide was determined through 3 h incubation time. The appropriate dilutions of each well were plated in triplicate and the extent of killing for the peptides were determined.
(§2) Briefly, 1 × 10^5 CFU per well of bacteria were incubated with different peptide concentrations in a 50 μL solution of Buffer Q consisting of 10 mM potassium phosphate buffer at pH 7.2 and 0.1% MB7H9 (3 h, 37 °C). Serial dilutions were then prepared in Buffer Q and plated in triplicate on MB7H9 plates, which were incubated (37 °C, 24 to 48 h) and CFUs counted. […] EC50 values were determined by plotting percent killing as a function of the log of peptide concentration (log μg/mL), and fitting the data from the antimicrobial assays to a standard sigmoidal dose-response curve, using Equation (1), where Y corresponds to bacterial killing (%) at a given peptide concentration (μg/mL), with X being the logarithm of that concentration (log μg/mL). In the equation, “Top” and “Bottom” refer to the upper and lower boundaries, and were constrained to values <100% and >0%, respectively.

[2] = tested on: M. smegmatis; details: for MIC: 48 h
[3] = cited from earlier work
[4] = tested on: M. smegmatis membrane; test: Bacterial cytoplasmic membrane depolarization assay, DiSC3(5); type: cell-based, Mycobacterium smegmatis
Method: Membrane depolarization assay was studied using DiSC3(5) as previously reported. Depolarization of a membrane can be visualized by a […] in fluorescence. After interaction with intact cytoplasmic membrane, the fluorescent probe DiSC3(5) was quenched. After incubation with the antimicrobial peptide, the membrane potential was lost, and the probe was released to the medium, ensuing in an increase of fluorescence that can be quantified and monitored as a function of time. In brief, enumerated frozen bacteria were pelleted and washed twice in phosphate buffer (pH 7.2) and then resuspended to 4 × 10^7 CFU/mL in phosphate buffer containing 50 μg/mL DiSC3(5). Then, 100 uLs of this suspension was added to wells of a black 96-well plate. The plate was incubated in a TECAN Safire2 spectrofluorometer and monitored until fluorescence leveled off. Next, 100 μLs of various concentrations of peptide in phosphate buffer (pH 7.2) were added to each well. Bacteria without peptide and peptide without bacteria served as controls. The plate was immediately returned to the spectrofluorometer. Readings were taken every 15 s for 5 min (excitation = 622 nm; emission = 670 nm).
Figure 1 Membrane depolarization activity by LL-37, mCRAMP, hBD3-Pep4, ATRA-1A, ATRA-2, and NA-CATH. Depolarization determined using DiSC3(5) (50 μg/mL) at multiple concentrations of peptide (50, 25, 5, and 0.5 μg/mL). […]

[5] = tested on: M. smegmatis; details: for MIC Alone / MIC Combined (antibiotic): checkerboard; for MIC Alone: 37 °C, about 10^5 CFU/mL, single agent; for FIC (peptide) / FIC (antibiotic): MIC in combination/MIC alone; for FICI: FICI ≤ 0.5 synergy, 0.5-1.0 additive, 1.0-4.0 indifferent, > 4.0 antagonism
[6] = tested on: M. tuberculosis; details: 100 μg/mL of peptide; cited from earlier work
[7] = tested on: M. tuberculosis; details: LL-37 ref 30; hBD3 ref 33; cited from earlier work
Method: While the EC50 experiments are typically carried out in 10 mM phosphate buffer with pH 7.2 for 3 h, the Minimal Inhibitory Concentration (MIC) is determined in bacterial broth (resulting in a higher salt concentration) with a 48 h incubation. We confirmed the sensitivity of M. smegmatis to common antibiotics such as polymyxin B, rifampicin, and fosmidomycin [35, 36, 37]. […] The reported MIC of full-length hBD ...

[8] = tested on: M. smegmatis; parameters: method as in earlier work; details: 10 μg/mL of LL-37; ref 9 (Sonawane et al.); cited from earlier work
[9] = tested on: M. smegmatis; test: Ethidium bromide uptake assay (membrane permeation); details: 50 μg/mL peptide, 10 μM ethidium bromide, examined at 20 min, 37 °C, n = 3, Figure 2
Method: Bacterial cytoplasmic membrane permeation is monitored by using the ethidium bromide uptake assay. […] M. smegmatis is grown until log phase in MB7H9 (Difco) broth with 2% (w/v) glucose as the carbon source, and 0.05% (v/v) Tween 80 in a shaking incubator (37 °C). Bacteria is centrifuged, washed with PBS, and then adjusted to an OD 600 nm of 0.1 Phosphate Buffer. 180 μL of bacteria is added to 10 μL ethidium bromide (10 μM final concentration) and 10 μL peptide in various concentrations, the experiment was performed in triplicate. The plate is read in a Tecan Safire^2 spectrofluorometer every 2 min for 30 min at 37 °C: (excitation = 540 nm, emission = 590 nm). Peak RFU at 20 min is used in Figure 2, and values were analyzed against wells with no peptide treatment with a Student’s t-test.
Permeablization of membrane after 20 min was compared. Experiments were performed in triplicate (n = 3).

[10] = tested on: M. smegmatis mc^2155; test: microbe, parasite or virus in culture; details: Mycolicibacterium smegmatis, MC^2155, 3 h
Method: as §1, §2

[11] = tested on: M. smegmatis; test: microbe, parasite or virus in culture; details: Mycolicibacterium smegmatis, 48 h
[12] = tested on: M. smegmatis; test: microbe, parasite or virus in culture; details: Mycolicibacterium smegmatis, 72 h, read-out: MIC Alone
[13] = from EC50 in μM, above 1 = more potent than rifampicin
[14] = same assay as μg/mL value, 3 h, 10 mM phosphate buffer
[15] = from MIC in μM, above 1 = less potent than rifampicin
[16] = in combination with polymyxin B
[17] = peptide combined with polymyxin B

Molecule: GLLRKGGEKIGEKLKKIGQKIKNFFQKLVPQPEQ [mCRAMP]
- EC50 ([1]; mc^2155, 3 h): 44 nM
- MIC [2]: 4.02 µM
- Hemolytic activity [3]: no hemolytic activity

Molecule: RGRRSSRRKK-NH2 [hBD3-Pep4]
- EC50 ([1]; mc^2155, 3 h): 287 nM
- MIC [2]: 48.65 µM

Molecule: CC[C@H](C)[C@H](NC(=O)[C@H](CCCCN)NC(=O)[C@H](CCC(=O)O)NC(=O)[C@H](CCCCN)NC(=O)[C@H](CO)NC(=O)[C@H](CCCCN)NC(=O)[C@H](CCCNC(=N)N)NC(=O)[C@H](Cc1ccccc1)NC(=O)[C@H](Cc1ccccc1)NC(=O)[C@H](CC(=O)O)NC(=O)CNC(=O)[C@H](CC(C)C)NC(=O)[C@@H](N)CC(C)C)C(=O)NCC(=O)N[C@@H](CCCCN)C(=O)N[C@@H](CCC(=O)O)C(=O)N[C@@H](Cc1ccccc1)C(=O)N[C@@H](CCCCN)C(=O)N[C@@H](CCCNC(=N)N)C(=O)N[C@H](C(=O)N[C@H](C(=O)N[C@@H](CCC(N)=O)C(=O)N[C@@H](CCCNC(=N)N)C(=O)N[C@H](C(=O)N[C@@H](CCCCN)C(=O)N[C@@H](CC(=O)O)C(=O)N[C@@H](Cc1ccccc1)C(=O)N[C@@H](CC(C)C)C(=O)N[C@@H](CCCNC(=N)N)C(=O)N[C@@H](CC(N)=O)C(=O)N[C@@H](CC(C)C)C(=O)N[C@H](C(=O)N1CCC[C@H]1C(=O)N[C@@H](CCCNC(=N)N)C(=O)N[C@H](C(=O)N[C@@H](CCC(=O)O)C(=O)N[C@@H](CO)C(=O)O)[C@@H](C)O)C(C)C)[C@@H](C)CC)C(C)C)[C@@H](C)CC [LL-37]
- Membrane depolarization ([4]; DiSC3(5) 50 μg/mL, within 1 min, peptide 50, 25, 5 and 0.5 μg/mL, phosphate buffer pH 7.2, n = 6, Figure 1): > 70%
- Lowest concentration that depolarizes the M. smegmatis membrane ([4]; DiSC3(5), p < 0.001): ≤ 0.5 µg/mL
- EC50 ([1]; 1 × 10^5 CFU per well, 10 mM potassium phosphate buffer pH 7.2 with 0.1% MB7H9, 3 h, 37 °C, CFU plated in triplicate, sigmoidal fit): 0.27 µg/mL
- Fold vs. Rifampicin [1, 13]: 2.65
- EC50 [1, 14]: 60 nM
- Fold vs. Rifampicin (μM) [2, 15]: 0.85
- MIC Alone ([5]; 72 h): 31.3 µg/mL
- FIC (peptide) [5, 16]: 0.12
- FIC (peptide) ([5]; in combination with rifampicin): 0.12
- FICI [5, 17]: 0.37
- Killing of M. tuberculosis [6]: 65%
- MIC against M. tuberculosis [7]: 5 µg/mL (≈ 1.11 µM)
- Intracellular killing [8]: 50%
- Extent of permeabilization (ethidium bromide uptake) [9]: very efficient

Molecule: KRAKKFFKKLK-NH2 [ATRA-1A]
- EC50 [1, 14]: 35 nM
- FIC (peptide) [5, 16]: 0.12
- FICI [5, 17]: 0.37
- FICI ([5]; peptide combined with rifampicin): 0.56
- Hemolysis ([3]; compared to PBS (pH 7)): did not elicit statistically significant hemolysis

Molecule: CC[C@H](C)CCCCC(=O)N[C@@H](CCN)C(=O)N[C@H](C(=O)N[C@@H](CCN)C(=O)N[C@H]1CCNC(=O)[C@H]([C@@H](C)O)NC(=O)[C@H](CCN)NC(=O)[C@H](CCN)NC(=O)[C@H](CC(C)C)NC(=O)[C@@H](Cc2ccccc2)NC(=O)[C@H](CCN)NC1=O)[C@@H](C)O [Polymyxin B] (X1-[Dab]T[Dab][Dab][Dab][dF]L[Dab][Dab]T; lactam 4-C (inferred); N-terminus assumed)
- Fold vs. Rifampicin [1]: 1.65
- EC50 ([1]; mc^2155, 3 h): 96 nM
- Fold vs. Rifampicin (μM) [2]: 1.26
- MIC [2]: 5.99 µM (≈ 7.21 µg/mL)
- MIC Alone ([5]; 72 h): 7.8 µg/mL

Molecule: O=CN(O)CCCP(=O)(O)O [Fosmidomycin]
- Fold vs. Rifampicin [1, 13]: 0.20
- Fold vs. Rifampicin (μM) [2, 15]: 0.39
- EC50 [10]: 780 nM
- EC50 ([10]; pH 7.2): 0.14 µg/mL

Molecule: CO[C@H]1/C=C/O[C@@]2(C)Oc3c(C)c(O)c4c(O)c(c(/C=N/N5CCN(C)CC5)c(O)c4c3C2=O)NC(=O)/C(C)=C\C=C\[C@H](C)[C@H](O)[C@@H](C)[C@@H](O)[C@@H](C)[C@H](OC(C)=O)[C@@H]1C [Rifampicin]
- Fold vs. Rifampicin [1, 13]: 1.0
- Fold vs. Rifampicin (μM) [2, 15]: 1
- MIC Combined (antibiotic) ([5]; in combination with ATRA-1A, 72 h): 1.95 µg/mL
- MIC Combined (antibiotic) ([5]; in combination with LL-37, 72 h): 0.97 µg/mL
- MIC Combined (antibiotic) ([5]; in combination with hBD3-Pep4, 72 h): 1.95 µg/mL
- MIC Combined (antibiotic) ([5]; in combination with mCRAMP, 72 h): 0.97 µg/mL
- FIC (antibiotic) ([5]; in combination with ATRA-1A): 0.5
- FIC (antibiotic) ([5]; in combination with LL-37): 0.25
- FIC (antibiotic) ([5]; in combination with hBD3-Pep4): 0.5
- FIC (antibiotic) ([5]; in combination with mCRAMP): 0.25
- EC50 [10]: 159 nM
- EC50 ([10]; pH 7.2): 0.13 µg/mL
- MIC [11]: 3.9 µg/mL and 4.73 µM
- MIC [12]: 3.9 µg/mL (≈ 4.74 µM)
